Here are results for 2 molecules from article PMC8389697, “Development and Characterization of a Novel Peptide—Drug Conjugate with DM1 for Treatment of FGFR2-Positive Tumors” (Biomedicines, 2021).

One data set has as its system MCF-7 cells. Kind of data set: Clone formation experiment. It counts as cell-based, human. Conditions: MCF-7, 200 cells per well, 1 week, crystal violet; performed three times. The method, then:
We seeded 200 cells per well in 6-well plates with culture medium. After 12 h, the cells were incubated with different agents for 1 week at 37 °C with 5% CO2. Then, we washed the wells with PBS, fixed the cells with methanol for 10 min and stained them with crystal violet at room temperature. Finally, we washed them with sterile water several times in order to obtain a clean background, and then, the colonies formed were photographed and statistically analyzed.

The conditions of data set [1]: once per week; no reference given; cited from earlier work. The text has this:
We investigated the antitumor efficacy of those two PDCs on xenografted mice in vivo.

Data set [2] has as its target T1, FGFR2 extracellular motif protein (UniProt P21802 22-377).
T1 construct: fibroblast growth factor receptor 2 (FGFR2), recombinant, 'extracellular motif protein'; No catalogue number is printed; limits, isoform (IIIb or IIIc) and tag of the bought protein are unknown; also called FGFR2 protein; recombinant proteins of the FGFR2; source: bought: Sino Biological
Nature of the data set: ITC; ITC200, 25 °C, both dissolved in sterile water; 0.1 mM peptide in the sample cell, 0.001 mM FGFR protein in the syringe; 19 injections of 2 µL, 5 min apart. Conditions: both partners purified.

Square brackets hold non-standard residues; d marks the D form. Ends that are not written are not given here. Hyp = O=C(O)[C@@H]1C[C@@H](O)CN1; Aad = N[C@@H](CCCC(=O)O)C(=O)O; Cit = NC(=O)NCCC[C@H](N)C(=O)O; Nva = CCC[C@H](N)C(=O)O; Ac3c = NC1(C(=O)O)CC1

T1 sequence (P21802 22-377): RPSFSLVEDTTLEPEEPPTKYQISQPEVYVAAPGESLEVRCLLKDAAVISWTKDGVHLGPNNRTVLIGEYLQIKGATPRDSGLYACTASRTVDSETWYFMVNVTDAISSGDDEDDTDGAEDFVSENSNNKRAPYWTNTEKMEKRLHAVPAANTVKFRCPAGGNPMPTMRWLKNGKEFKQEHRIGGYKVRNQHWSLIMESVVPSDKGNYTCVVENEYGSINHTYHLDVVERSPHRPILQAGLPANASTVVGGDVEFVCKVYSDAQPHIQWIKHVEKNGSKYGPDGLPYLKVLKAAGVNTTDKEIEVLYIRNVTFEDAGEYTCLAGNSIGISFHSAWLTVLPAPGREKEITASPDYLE

As to `COc1cc2cc(c1Cl)N(C)C(=O)C[C@H](OC(=O)[C@H](C)N(C)C(=O)CCS)[C@]1(C)O[C@H]1[C@H](C)[C@@H]1C[C@@](O)(NC(=O)O1)[C@H](OC)/C=C/C=C(\C)C2` [DM1, reference compound], the “concentration that completely suppresses clone formation” value in the data set on MCF-7 cells was 0.001 µg/mL. In addition, the “tolerated concentrations in mice” value in data set [1] was 1.0 to 1.5 mg/kg.
In data set [2], [Hyp][dL][Cit][dD][dN][dK][Ac3c][Nva][Aad] [LLC2B] had a Ka of 1.04e+09 M⁻¹ and a Kd of 0.96 nM.

What is called Kd is a measure of binding affinity in units of concentration.
